SMILES strings stand for the structures. Where “and” joins values, the source holds several entries; their conditions need not be identical. Equal entries are not always repeated.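 Growth conditions: 96-well plates. Treatment: test compound, 48 hours, 5 concentrations. Analysis: linear interpolation between bracketing concentrations; unreached endpoints set to highest concentration. The concentration for 50% growth inhibition is given as GI50. TGI denotes the concentration required for complete inhibition of growth.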

Some test systems named below: SK-MEL-28 melanoma; OVCAR-3 ovarian; NCI-H23 lung; SNB-19 CNS; KM12 colon; OVCAR-4 ovarian; HCT-116 colon; OVCAR-8 ovarian; UACC-62 melanoma; A498 renal.
Experiment in all cases: NCI tumour cell line growth inhibition, 48 h

In the case of `CCCCCCCCCCCCC1N=C(N)NC2(CCCO2)C1C(=O)OC` (stereo unspecified), the TGI amounted to 21.6 µM in the test on SK-MEL-28 melanoma; 13.2 µM in the test with OVCAR-3 ovarian; 18.2 µM in the test with NCI-H23 lung; 9.92 µM in the test with SNB-19 CNS; 3.34 µM in the test with KM12 colon; 26.4 µM in the test with OVCAR-4 ovarian. The TGI is 7.32 µM with HCT-116 colon, 23.3 µM with OVCAR-8 ovarian, 14.8 µM in the test with UACC-62 melanoma and 47.7 µM with A498 renal.

Regarding `CC(C)[C@@H]1NC(=O)[C@@H]2N=C(O[C@H]2C)[C@H](C(C)C)NC(=O)C2N=C1O[C@H]2C`, the TGI in the test on SK-MEL-28 melanoma, with OVCAR-3 ovarian, in the test on NCI-H23 lung, in the test with SNB-19 CNS, in the test with KM12 colon and in the test on OVCAR-4 ovarian was over 100 µM each time. The TGI with HCT-116 colon, in the test on OVCAR-8 ovarian, in the test on UACC-62 melanoma and in the test on A498 renal was over 100 µM each time.

Regarding `COc1cc(CCc2ccc(OC(C)=O)cc2)cc(OC)c1OC`, the TGI with SK-MEL-28 melanoma, in the test on OVCAR-3 ovarian, with SNB-19 CNS, in the test on KM12 colon, in the test on OVCAR-4 ovarian and in the test on HCT-116 colon was over 100 µM throughout. The TGI in the test with OVCAR-8 ovarian, in the test on UACC-62 melanoma and in the test with A498 renal was over 100 µM each time.

For `CC(=O)C(C(C)=O)[C@H]1OC(C)(C)O[C@H]1[C@H]1COC(C)(C)O1`, the TGI in the test with SK-MEL-28 melanoma, with OVCAR-3 ovarian, in the test on NCI-H23 lung, in the test on SNB-19 CNS, with KM12 colon and in the test on OVCAR-4 ovarian was over 100 µM throughout. Besides, the TGI with HCT-116 colon, in the test with OVCAR-8 ovarian, with UACC-62 melanoma and in the test on A498 renal was over 100 µM in each case.

Consider `O=C(NCc1ccccc1Cl)c1c(O)c2ccccc2[nH]c1=O`, for which the TGI in the test on SK-MEL-28 melanoma was over 100 µM; with OVCAR-3 ovarian, over 100 µM; in the test on NCI-H23 lung, over 100 µM; in the test with SNB-19 CNS, over 100 µM; with KM12 colon, over 100 µM; in the test on OVCAR-4 ovarian it was 23.2 µM. Besides, the TGI with HCT-116 colon was over 100 µM; with OVCAR-8 ovarian, over 100 µM; in the test on A498 renal it was 30.4 µM.

Turning to `CC[C@@]1(O)C(=O)OCc2c1cc1n(c2=O)Cc2c-1nc1ccccc1c2C=Nc1ccccc1N[C@@H]1c2cc3c(cc2[C@@H](c2cc(OC)c(O)c(OC)c2)[C@H]2C(=O)OC[C@@H]21)OCO3`, the GI50 in the test on SK-MEL-28 melanoma was 11.4 µM and 1.17 µM; with OVCAR-3 ovarian, 1.46 µM and 0.337 µM; in the test with NCI-H23 lung, 0.0356 µM and 0.0156 µM; in the test on SNB-19 CNS, 0.0869 µM and 0.0336 µM; in the test with KM12 colon it was 4.99 µM and 1.74 µM; in the test on OVCAR-4 ovarian, 17.2 µM. The GI50 in the test on OVCAR-8 ovarian is 0.0551 µM and 0.28 µM; in the test with A498 renal it was 0.325 µM and 0.142 µM. Besides, the TGI is 35 µM and > 50 µM with SK-MEL-28 melanoma; 10.9 µM and 1.81 µM in the test on OVCAR-3 ovarian; over 52.5 µM in the test with SNB-19 CNS; > 41.6 µM and 8.08 µM with KM12 colon; over 62.6 µM in the test with OVCAR-4 ovarian; 4.48 µM and 2.5 µM in the test with HCT-116 colon. Moreover, the TGI with OVCAR-8 ovarian is 2.15 µM and 4.12 µM; in the test on UACC-62 melanoma it was 13.1 µM; in the test with A498 renal, 1.79 µM and 0.68 µM.

As to `CCC(=C/[C@H](C)C/C=C/C(C)=C/[C@@H](C)C(=O)[C@@H](C)[C@H](O)[C@@H](C)CC)/C=C/[C@H]1CC=CC(=O)O1`, the TGI in the test with SK-MEL-28 melanoma was 2.81 µM and 15.1 µM; in the test on NCI-H23 lung, 5.26 µM and 13.3 µM; in the test with SNB-19 CNS, 2.11 µM and 14 µM; with OVCAR-4 ovarian, 12 µM; in the test on HCT-116 colon it was 0.002 µM; with OVCAR-8 ovarian, 2.79 µM and 11.3 µM. Moreover, the TGI was 0.00667 µM with UACC-62 melanoma and under 0.0012 µM in the test with A498 renal.

Turning to `COC(=O)c1ccccc1C1CN=NC12Cc1c(C)ccc(C)c1C2=O` (stereo unspecified), the TGI in the test with SK-MEL-28 melanoma, with OVCAR-3 ovarian, with NCI-H23 lung, in the test with SNB-19 CNS, in the test with KM12 colon and in the test with OVCAR-4 ovarian was over 100 µM throughout. The TGI in the test with HCT-116 colon, in the test on OVCAR-8 ovarian, with UACC-62 melanoma and with A498 renal was over 100 µM each time.

Regarding `CCCCCCCCCCCCC1N=C(N)N2CCCC2=C1C(=O)OC` (stereo unspecified), the TGI is 3.1 µM in the test on SK-MEL-28 melanoma; 5.11 µM in the test with OVCAR-3 ovarian; 6.17 µM in the test on NCI-H23 lung; 3.41 µM with SNB-19 CNS; 3.94 µM in the test with KM12 colon; 5.86 µM in the test on OVCAR-4 ovarian. Besides, the TGI stood at 3.34 µM in the test on HCT-116 colon, 3.37 µM in the test with OVCAR-8 ovarian, 3.36 µM with UACC-62 melanoma and 47.1 µM with A498 renal.

Consider `CN(/N=C\c1ccc2ccccc2c1)C1=NCCCN1`, for which the TGI is 29.8 µM with SK-MEL-28 melanoma; 54.1 µM in the test on OVCAR-3 ovarian; over 100 µM with NCI-H23 lung; 32.1 µM with KM12 colon; over 100 µM with OVCAR-4 ovarian; 28.9 µM in the test with HCT-116 colon. Moreover, the TGI is over 100 µM in the test with OVCAR-8 ovarian, 34.5 µM with UACC-62 melanoma and 28.8 µM in the test on A498 renal.

As to `Cc1ccc(-n2cc(-c3ccc(Cl)cc3)c3c(=N)n(N)cnc32)cc1`, the TGI in the test with SK-MEL-28 melanoma was found to be 26.7 µM; with OVCAR-3 ovarian it was 26.5 µM; with NCI-H23 lung, 30.3 µM; in the test on SNB-19 CNS, 24.4 µM; in the test on OVCAR-4 ovarian it was 22.5 µM; with HCT-116 colon it was 20.3 µM. Further, the TGI was 29.9 µM in the test with OVCAR-8 ovarian, 26.4 µM in the test on UACC-62 melanoma and 29.5 µM with A498 renal.

As to `COc1cc2c(cc1OC)C(=O)N(c1ccc(OCCN3CCCC3)cc1)C2=O`, the TGI in the test with SK-MEL-28 melanoma, with OVCAR-3 ovarian, with NCI-H23 lung, in the test on SNB-19 CNS, in the test on KM12 colon and in the test on OVCAR-4 ovarian was over 100 µM throughout. Also, the TGI with HCT-116 colon, in the test with OVCAR-8 ovarian, with UACC-62 melanoma and in the test with A498 renal was over 100 µM throughout.

In the case of `S=c1[nH]n2c(COc3cc(Cl)c(OCc4nnc5sc(=S)[nH]n45)cc3Cl)nnc2s1`, the TGI with SK-MEL-28 melanoma, in the test on OVCAR-3 ovarian, in the test on NCI-H23 lung, with SNB-19 CNS, in the test on KM12 colon and in the test with OVCAR-4 ovarian was over 100 µM in each case. For the same molecule, the TGI is over 100 µM in the test with HCT-116 colon, over 100 µM in the test with OVCAR-8 ovarian, 83.9 µM in the test on UACC-62 melanoma and over 100 µM in the test on A498 renal.

Values taken from PubChem BioAssay (NCI).
